Test results reported in patent publication US20090215895A1, “Therapeutic and carrier molecules” (PEPLIN BIOLIPIDS PTY LTD, priority 2004, published 2009).
Entries after “also recorded” stand apart in the source; their conditions may differ.

Legend:
[1] = molecular target: T1, PKCβI (Rattus norvegicus, UniProt P68403); assay: PKCβ1 translocation in the glomeruli of streptozotocin-diabetic rats; format: in vivo; conditions: administered for 7 days after confirmation of diabetes
T1 construct: from tissue; host or cells: glomeruli of streptozotocin-diabetic male rats
T1 sequence (P68403 whole entry): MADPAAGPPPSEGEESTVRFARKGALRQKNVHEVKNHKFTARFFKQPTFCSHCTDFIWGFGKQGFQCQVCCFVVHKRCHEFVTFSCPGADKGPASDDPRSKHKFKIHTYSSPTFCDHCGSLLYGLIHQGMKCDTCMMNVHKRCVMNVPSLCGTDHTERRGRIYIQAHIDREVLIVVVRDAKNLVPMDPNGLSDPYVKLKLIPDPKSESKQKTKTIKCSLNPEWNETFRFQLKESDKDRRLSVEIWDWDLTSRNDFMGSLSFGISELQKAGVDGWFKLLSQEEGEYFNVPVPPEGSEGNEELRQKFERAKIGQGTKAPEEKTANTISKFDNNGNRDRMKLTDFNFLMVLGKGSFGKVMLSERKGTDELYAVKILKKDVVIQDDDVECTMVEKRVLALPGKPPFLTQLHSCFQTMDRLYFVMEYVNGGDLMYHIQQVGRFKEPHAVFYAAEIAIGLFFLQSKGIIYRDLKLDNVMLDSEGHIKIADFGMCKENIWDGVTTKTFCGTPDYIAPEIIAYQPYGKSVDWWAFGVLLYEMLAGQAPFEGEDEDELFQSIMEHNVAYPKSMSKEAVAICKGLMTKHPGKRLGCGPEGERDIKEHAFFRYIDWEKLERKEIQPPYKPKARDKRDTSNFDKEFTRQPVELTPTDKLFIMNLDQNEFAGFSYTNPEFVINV
Experimental: (§1) FIG. 9 is a diagrammatic representation showing the suppression of PKCβ1 translocation in glucose-stimulated mesangial cells (a) and in the glomeruli of a diabetic rat (b). Mesangial cells were pre-treated with MP5 or vehicle (ethanol) for 1 hr before being incubated with 25 mM glucose for 5 days. Male rats were rendered diabetic with streptozotocin and MP5 or vehicle (ethanol) was administered for 7 days after confirmation of diabetes. The cells and glomeruli were sonicated and particulate fraction-associated PKCβ1 was determined by Western blot analysis. High glucose and diabetes increased PKCβ1 in the particulate fraction.

[2] = Formalin-induced pain test (hind paw licking time); format: in vivo
Experimental: Investigations of the effects of PT2 on pain induced by phenylquinolic acid (PQ writhing) and formalin have been made. In both the PQ writhing test (FIG. 3) and the formalin algesia test (FIG. 4), PT2 administered by intraperitoneal inoculation reduced pain and compared favourably with pain reduction by aspirin (oral, 100 mg/kg). In these tests, the EPUFA was administered 30 min before the pain stimulus and effects recorded over the following 20 min.
Investigations of PT2 in the formalin-induced analgesia model looking specifically at the biphasic response have also been undertaken and are shown in Table 1. It is well documented that in this model, aspirin suppresses only pain related to the inflammatory process (15-20 mins post-administration of formalin), while morphine suppresses pain in both phases of the response (0-5 min and 15-20 min).
Compounds were administered intraperationedly (ip) 30 min prior to the administration of formalin (0.02 ml, 1% solution) via subplantar injection into the right hind paw. Reduction of the induced hind paw licking time recorded during the following 0-5 min period (Phase I response) or 15-20 min period (Phase II response) was determined. The data in Table 1 are the mean responses of 5 animals in each group.

[3] = molecular target: T2, PKCβII (Homo sapiens, UniProt P05771); assay: PMA-stimulated PKC translocation to the particulate fraction in HUVEC and other cell-types; format: cell-based
T2 construct: endogenous in cells; host or cells: HUVEC (and unnamed other cell-types)
T2 sequence (P05771 1-673 isoform P05771-2): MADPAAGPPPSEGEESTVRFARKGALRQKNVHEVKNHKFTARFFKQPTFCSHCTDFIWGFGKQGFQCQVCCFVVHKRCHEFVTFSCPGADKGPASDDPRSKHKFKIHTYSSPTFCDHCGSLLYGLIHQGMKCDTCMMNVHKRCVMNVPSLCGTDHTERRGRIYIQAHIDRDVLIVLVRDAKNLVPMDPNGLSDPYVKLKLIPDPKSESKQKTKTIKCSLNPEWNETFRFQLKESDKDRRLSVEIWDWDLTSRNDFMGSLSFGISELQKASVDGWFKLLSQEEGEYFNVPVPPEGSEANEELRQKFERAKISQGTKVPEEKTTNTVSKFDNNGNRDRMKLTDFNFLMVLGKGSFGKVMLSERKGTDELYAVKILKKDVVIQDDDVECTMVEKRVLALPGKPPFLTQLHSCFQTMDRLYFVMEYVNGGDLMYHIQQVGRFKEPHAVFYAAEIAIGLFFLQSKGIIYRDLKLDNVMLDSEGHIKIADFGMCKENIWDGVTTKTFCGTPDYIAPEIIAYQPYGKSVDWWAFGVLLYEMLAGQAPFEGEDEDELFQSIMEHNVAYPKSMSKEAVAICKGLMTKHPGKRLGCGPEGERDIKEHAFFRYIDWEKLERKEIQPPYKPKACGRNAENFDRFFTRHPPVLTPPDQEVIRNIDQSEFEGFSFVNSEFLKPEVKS
Experimental: (§2) MP5 had minimal effects (<15%) on PKCε translocation and no effects on the translocation of the other PKC isozymes in Jurkat cells.
Mesangial cells express PKCα, βI, ε, δ and ζ (Koya et al, 1997 supra, Kikkawa et al, 1994 supra), and βII at lower levels (Koya et al, 1997 supra). To examine the effect of MP5 on the ability of other PKC isozymes in mesangial cells to translocate to the particulate fraction, the cells were pre-treated with MP5 before being stimulated with PMA (1-100 nM). This agent stimulated the translocation of all the classical and novel isozymes. […] The studies were extended to other isozymes. For PKCγ (expressed mainly by neuronal cells), the effect of MP5 are tested using PMA-stimulated PC12 rat pheochromocytoma cells. To assess the effect of MP5 on the activation of atypical PKC isozymes such as PKCζ NIH3T3 cells were pre-treated with MP5 before being stimulated with tumour necrosis factor ? (1000 U/ml) which stimulates PKCζ activity in these cells (Lallena et al, 1999 supra). The isozyme were immunoprecipitated (antibody from Santa Cruz) and kinase activity was determined using a PKCε pseudosubstrate peptide or myelin basic protein as a substrate (Suzuma et al, 2002 supra).

[4] = test system: PKCβI; assay: PKCβ1 translocation in glucose-stimulated mesangial cells (Western blot); format: cell-based; conditions: 1 hr pre-treatment, 25 mM glucose 5 days
Experimental: as §1
Mesangial cells are prepared as previously described (Couper et al, 1994 supra).
Four groups of cells were set up: 5.5 mM glucose+ethanol (0.1% w/v or v/v), 5.5 mM glucose+MP5 (20 μM which is effective in the studies), 25 mM glucose+ethanol and 25 mM glucose+MP5. […] Cells were pre-incubated (30 min-24 h) with MP5 before being challenged with glucose for 4 days. […] Cells are then be washed, sonicated and the amount of each PKC isozyme in the particulate fraction determined by Western blot analysis. The soluble fractions were kept for estimation of soluble PKC (non-particulate fraction-associated). […] The cells remained viable throughout the period of study as judged by the trypan blue exclusion test. […]

[5] = Tissue distribution after oral administration; format: in vivo
[6] = test system: HUVEC; assay: Agonist-enhanced neutrophil adherence to HUVEC; format: cell-based, human; conditions: 20 μmol/l, 1 hr pre-treatment, TNF 4 hr
Experimental: FIG. 11 is a representation showing effect of β-oxa; β-thia and natural PUFA on TNF-enhanced neutrophil adherence to HUVEC. HUVEC were pre-treated with the fatty acids (20 μmol/l) for 60 min at 37° C. before being stimulated with TNF (125 U/200 μl medium) for 4 hr at 37° C. The cells were then co-incubated with neutrophils (5×10^5 cells/well) at 37° C. for 30 min and the degree of neutrophil adherence quantitated. The results are expressed as % of control and represent the mean±SEM of three separate experiments each performed in triplicate. * p<0.05, ***p<0.001, for significant differences between pre-treatment with fatty acid and control (one-way analysis of variance followed by the Dunnett test for multiple comparisons).
Adhesion of neutrophils, prepared by the rapid-single-step method (Ferrante et al, J. Immun. Methods 36:109-117, 1980), to HUVEC isolated from umbilical cords was carried out essentially as described (Huang et al, 1997 supra).
The magnitude of the suppressive effect of -MP3 was dependent on-pre-treatment time and concentration with significant effects observed with a pre-treatment time of 1 hr and a concentration of ≧5 μmol/l.

[7] = test system: other PKC isozymes; assay: PKC translocation in Jurkat cells; format: cell-based
Excerpt: as §2

[8] = molecular target: T3, PKCε (Homo sapiens, UniProt Q02156); assay: PKC translocation in Jurkat cells; format: cell-based
T3 construct: endogenous in cells; host or cells: Jurkat
T3 sequence (Q02156 whole entry): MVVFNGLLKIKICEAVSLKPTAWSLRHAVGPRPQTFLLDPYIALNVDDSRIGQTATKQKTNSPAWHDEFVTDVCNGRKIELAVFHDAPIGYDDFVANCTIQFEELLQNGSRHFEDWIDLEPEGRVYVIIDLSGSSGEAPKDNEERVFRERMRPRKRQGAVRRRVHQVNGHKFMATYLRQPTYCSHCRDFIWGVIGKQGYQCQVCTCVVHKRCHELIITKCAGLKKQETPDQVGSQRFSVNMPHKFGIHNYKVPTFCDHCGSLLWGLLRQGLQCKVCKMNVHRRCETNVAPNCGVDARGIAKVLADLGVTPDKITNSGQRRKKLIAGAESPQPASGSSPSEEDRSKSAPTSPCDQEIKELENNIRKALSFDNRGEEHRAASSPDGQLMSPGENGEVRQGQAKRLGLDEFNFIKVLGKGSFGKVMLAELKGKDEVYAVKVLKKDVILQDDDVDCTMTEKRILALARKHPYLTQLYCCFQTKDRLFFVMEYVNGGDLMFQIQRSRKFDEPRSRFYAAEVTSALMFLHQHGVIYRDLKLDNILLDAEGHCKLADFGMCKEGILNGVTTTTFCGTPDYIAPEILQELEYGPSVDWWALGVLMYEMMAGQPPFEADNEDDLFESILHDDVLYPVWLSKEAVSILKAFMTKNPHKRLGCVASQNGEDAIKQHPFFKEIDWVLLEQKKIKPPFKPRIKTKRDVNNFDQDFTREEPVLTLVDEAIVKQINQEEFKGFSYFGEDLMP
Excerpt: as §2

[9] = molecular target: T4, PKCβI (Homo sapiens, UniProt P05771); assay: PMA-stimulated PKC translocation to the particulate fraction in HUVEC and other cell-types; format: cell-based
T4 construct: endogenous in cells; host or cells: HUVEC (and unnamed other cell-types)
T4 sequence (P05771 whole entry): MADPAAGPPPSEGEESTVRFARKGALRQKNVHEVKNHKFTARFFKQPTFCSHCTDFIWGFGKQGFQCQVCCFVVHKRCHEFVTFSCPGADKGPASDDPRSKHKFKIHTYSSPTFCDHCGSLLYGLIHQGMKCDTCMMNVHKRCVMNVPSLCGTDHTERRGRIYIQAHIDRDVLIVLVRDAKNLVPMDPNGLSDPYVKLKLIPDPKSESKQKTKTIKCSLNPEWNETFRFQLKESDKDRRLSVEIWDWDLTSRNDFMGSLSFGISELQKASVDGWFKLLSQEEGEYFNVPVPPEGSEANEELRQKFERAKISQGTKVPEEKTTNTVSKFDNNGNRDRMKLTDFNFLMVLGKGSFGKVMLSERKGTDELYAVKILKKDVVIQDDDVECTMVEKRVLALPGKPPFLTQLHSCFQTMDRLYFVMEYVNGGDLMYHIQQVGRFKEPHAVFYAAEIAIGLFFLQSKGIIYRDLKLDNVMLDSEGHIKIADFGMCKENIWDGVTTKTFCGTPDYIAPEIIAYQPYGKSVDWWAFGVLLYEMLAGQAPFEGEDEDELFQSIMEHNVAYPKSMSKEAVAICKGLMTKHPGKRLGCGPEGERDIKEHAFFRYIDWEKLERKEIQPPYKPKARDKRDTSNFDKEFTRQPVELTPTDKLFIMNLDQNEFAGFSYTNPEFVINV

[10] = Long term in vivo tolerability of MP5; parameters: species or system rats; conditions: up to 100 mg/kg
Experimental: as §2
The ability of MP5 to inhibit renal TGFβ production and albuminuria in streptozotocin-induced diabetic Sprague-Dawley rats were investigated. MP5 is non toxic to rats given at up to 100 mg/kg chronically as determined by liver and kidney biochemical and electrolyte markers. […] Animals (130-150 g) were placed randomly in one of five groups: control, MP5-treated, diabetic, diabetic+MP5 and diabetic+MP1. Power analysis ([…], β=0.1) (expecting at least a 50% reduction and an SD of 30% of mean) indicate that 7-8 animals/group were needed. The rats were rendered diabetic using streptozotocin (65 mg/kg. I.P) and blood glucose levels were measured 48 hr later to confirm the onset of diabetes (glucose>15 mM). […] Blood glucose was measured every week. […] At the end of the MP5 treatment period, rats were sacrificed and the level of TGFβ mRNA (Kikkawa et al 1994 supra) in the glomeruli were determined by slot blot analysis (Ferrante et al, 1997 supra) and normalized by comparison with the level of GAPDH (glyceraldehyde 3-phosphate dehydrogenase) mRNA in the same sample (Ferrante et al, 1997 supra). The amount of albumin in the urine were measured by using a commercial kit (EXOCELL Inc. Philadelphia, Pa.). […]

[11] = 100 mg/kg ip, 30 min prior to formalin, mean of 5 animals

CC/C=C\C/C=C\C/C=C\CCCCCCCCOCC(=O)O [MP5, β-oxa-21:3n-3]
Translocation of PKCβI to a particulate fraction, glomeruli of diabetic rats [1]: prevent the translocation of PKCβI; also recorded: inhibited this effect | % inhibition of pain response, Phase I (0-5 mins) [2, 11]: 34% | % inhibition of pain response, Phase II (15-20 mins) [2, 11]: 37% | Pain reduction in formalin test ([2]; intraperitoneal, 30 min before pain stimulus): much less effective in inhibiting pain | PMA-stimulated translocation of PKCβII to the particulate fraction [3]: inhibited PMA-stimulated translocation | Translocation of PKCβI to a particulate fraction, glucose-stimulated mesangial cells [4]: prevent the translocation of PKCβI; also recorded: inhibited this effect | Presence in blood, organs and tissues after oral administration [5]: present in the blood and various organs; also recorded: taken up by tissues, including kidneys, and incorporated into phospholipids | Inhibition of TNF-α-enhanced neutrophil adhesion to HUVEC [6]: inhibited their ability to be stimulated | Effect on translocation of the other PKC isozymes [7]: no effects | Effect on PKCε translocation [8]: < 15% | PMA-stimulated translocation of PKCβI to the particulate fraction ([9]; HUVEC and other cell-types): inhibited PMA-stimulated translocation | Selectivity between PKCβI and PKCβII ([9]; HUVEC, depending on the concentrations used): able to distinguish between PKCβI and PKCβII | Liver and kidney function and electrolyte levels ([10]; chronic): no adverse effects on liver and kidney function and electrolyte levels; also recorded: non toxic | Well-being of the animals (coat appearance, activity/mobility) ([10]; up to three months): no visible adverse effects
